{"source": "patent US20220304352A1", "about": "“TASTE-MODIFYING COMPOUNDS AND USES THEREOF” (Firmenich SA, priority 2019, published 2022)", "assay_type_in_all_cases": "in vivo", "key": {"trained panelists [1]": {"tested_on": "trained panelists", "test": "Sensory evaluation of umami in 0.05% MSG base (trained panel, scale -5 to 5)", "from_the_text": "(§1) A panel consisting of 25 trained panelists evaluated samples at 5, 10 or 20 ppm for taste properties (salt and/or umami, or KCl taste) on a scale of −5 to 5 (−5 denoted strong masking effect and 5 denoted strong enhancing effect, 0 being the intensity of a reference water solution containing 0.25% NaCl or 0.25% KCl or 0.05% MSG or 1.5% chicken broth base). A panel consisted of 25 trained panelists evaluated samples at 5 ppm for taste properties (salt and/or umami) on a scale of −5 to 5 (−5 denoted strong masking effect and 5 denoted strong enhancing effect, 0 being the intensity of a reference water solution containing 0.25% NaCl or 0.05% MSG or 1.5% chicken broth base). • 1) Sensory Evaluation"}, "trained panelists [2]": {"tested_on": "trained panelists", "test": "Sensory evaluation of saltiness in 0.25% NaCl base (trained panel, scale -5 to 5)", "from_the_text": "as §1"}, "trained panelists [3]": {"tested_on": "trained panelists", "test": "Sensory evaluation of saltiness and KCl taste in 0.25% KCl base (trained panel, scale -5 to 5)", "details": "0.25% KCl base, 20 ppm", "from_the_text": "A panel consisting of 25 trained panelists evaluated samples at 5, 10 or 20 ppm for taste properties (salt and/or umami, or KCl taste) on a scale of −5 to 5 (−5 denoted strong masking effect and 5 denoted strong enhancing effect, 0 being the intensity of a reference water solution containing 0.25% NaCl or 0.25% KCl or 0.05% MSG or 1.5% chicken broth base)."}}}
{"smiles": "O=C(NCCO)c1ccc(O)cc1", "note": "[Compound III]", "values": [{"measurement": "umami enhancement", "setting": "trained panelists [1]; 5 ppm, with nose-clip", "result": "enhanced umami"}, {"measurement": "umami enhancement", "setting": "trained panelists [1]; 5 ppm, without nose-clip", "result": "enhanced umami"}, {"measurement": "saltiness enhancement", "setting": "trained panelists [2]; 5 ppm, with nose-clip", "result": "significantly enhanced saltiness"}, {"measurement": "saltiness enhancement", "setting": "trained panelists [2]; 5 ppm, without nose-clip", "result": "significantly enhanced saltiness"}]}
{"smiles": "O=C(NCCO)c1ccccc1", "note": "[Compound II]", "values": [{"measurement": "umami enhancement", "setting": "trained panelists [1]; 5 ppm, with nose-clip", "result": "enhanced"}, {"measurement": "umami enhancement", "setting": "trained panelists [1]; 5 ppm, without nose-clip", "result": "enhanced umami"}, {"measurement": "saltiness enhancement", "setting": "trained panelists [2]; 5 ppm, with nose-clip", "result": "significantly enhanced saltiness"}, {"measurement": "saltiness enhancement", "setting": "trained panelists [2]; 5 ppm, without nose-clip", "result": "enhanced saltiness"}]}
{"smiles": "O=C(/C=C/c1ccccc1)NCCO", "note": "[Compound IV]", "values": [{"measurement": "umami enhancement", "setting": "trained panelists [1]; 10 ppm, with nose-clip", "result": "enhanced umami"}, {"measurement": "umami enhancement", "setting": "trained panelists [1]; 10 ppm, without nose-clip", "result": "enhanced umami"}, {"measurement": "saltiness enhancement", "setting": "trained panelists [2]; 10 ppm, with nose-clip", "result": "significantly enhanced saltiness"}, {"measurement": "saltiness enhancement", "setting": "trained panelists [2]; 10 ppm, without nose-clip", "result": "enhanced saltiness"}]}
{"smiles": "N=C(N)NCCCC(NC(=O)/C=C/c1ccccc1)C(=O)O", "note": "(stereo not drawn) [Compound VI]", "values": [{"measurement": "umami enhancement", "setting": "trained panelists [1]; 5 ppm, without nose-clip", "result": "significantly enhanced umami intensity"}, {"measurement": "umami enhancement", "setting": "trained panelists [1]; 10 ppm, with nose-clip", "result": "enhanced"}, {"measurement": "umami enhancement", "setting": "trained panelists [1]; 10 ppm, without nose-clip", "result": "enhanced"}, {"measurement": "saltiness enhancement", "setting": "trained panelists [2]; 5 ppm, with nose-clip", "result": "significantly enhanced saltiness intensity"}, {"measurement": "saltiness enhancement", "setting": "trained panelists [2]; 10 ppm, with nose-clip", "result": "enhanced saltiness"}, {"measurement": "saltiness enhancement", "setting": "trained panelists [2]; 10 ppm, without nose-clip", "result": "enhanced saltiness"}]}
{"smiles": "O=C(/C=C/C=C/c1ccc2c(c1)OCO2)NCCO", "note": "[Compound V]", "values": [{"measurement": "umami enhancement", "setting": "trained panelists [1]; 20 ppm, with nose-clip", "result": "enhanced umami"}, {"measurement": "umami enhancement", "setting": "trained panelists [1]; 20 ppm, without nose-clip", "result": "enhanced umami"}, {"measurement": "KCl taste masking", "setting": "trained panelists [3]; with nose-clip", "result": "significantly masked KCl taste"}, {"measurement": "saltiness enhancement", "setting": "trained panelists [3]; with nose-clip", "result": "enhanced saltiness"}, {"measurement": "KCl taste masking", "setting": "trained panelists [3]; without nose-clip", "result": "significantly masked KCl taste"}, {"measurement": "saltiness enhancement", "setting": "trained panelists [3]; without nose-clip", "result": "enhanced saltiness"}]}
